The values below come from ChEMBL document CHEMBL1144739, “[6]-gingerol induces Ca2+ mobilization in Madin-Darby canine kidney cells” (2008).

Calls of active or inactive are those of the source. No cut-off for these calls is given here.

Assay [1] relates to MDCK. Briefly: Elevation of drug-induced intracellular calcium level in MDCK cells at 1 uM. In kind it is functional, Canis lupus familiaris.
Assay [2] has as its system MDCK. Put plainly: Activation of protein kinase C in dog MDCK cells assessed as change in intracellular calcium level in presence of phorbol myristate acetate. In kind it is cell-based. The note with it: Canis lupus familiaris.
The test system of assay [3] is MDCK. Put plainly: Inhibition of phospholipase C in dog MDCK cells assessed as change in basal intracellular calcium level in presence of U73122. The note with it: Canis lupus familiaris. In kind it is cell-based.
In assay [4] the test system is MDCK. Put plainly: Inhibition of protein kinase C in dog MDCK cells assessed as change in intracellular calcium level in presence of GF109203 X. The class given is cell-based. The note with it: Canis lupus familiaris. For orientation: A change in cytosolic calcium serves as a functional read-out for many receptors and channels.
In assay [5] the test system is MDCK. Briefly: Increase in drug-induced intracellular calcium level in dog MDCK cells at 10 uM after 250 seconds. The class given is functional, Canis lupus familiaris.
The subject of assay [6] is MDCK. Put plainly: Inhibition of drug-induced intracellular calcium level in dog MDCK cells at 20 uM in absence of extracellular calcium. In kind it is functional, Canis lupus familiaris. Further details: scale not given: the % may be the effect or the level left.
Assay [7] relates to MDCK. Put plainly: Increase in drug-induced intracellular calcium level in dog MDCK cells at 0.1 uM. In kind it is functional, cell-based. The note with it: Canis lupus familiaris.
The test system of assay [8] is MDCK. Briefly: Increase in drug-induced intracellular calcium level in dog MDCK cells in presence of extracellular calcium. The note with it: Canis lupus familiaris. The class given is functional, cell-based.

`C/C=C(/C)C(=O)O[C@H]1C(C)=C2[C@H]([C@@H]1OC(=O)CCCCCCC)[C@@](C)(OC(C)=O)C[C@H](OC(=O)CCC)[C@@]1(O)[C@H]2OC(=O)[C@@]1(C)O` [THAPSIGARGIN]: in the assay with MDCK [1], the Activity came to 216 nM.

As to `CCCCC[C@H](O)CC(=O)CCc1ccc(O)c(OC)c1` [GINGEROL], the outcome with MDCK [2] and in the assay with MDCK [4] was Active. Besides, the outcome with MDCK [3] and with MDCK [7] was inactive. In addition, the values for the Activity with MDCK [5], in the assay with MDCK [6] and in the assay on MDCK [8] were 295 nM, 78% and “Dose-dependent effect”, respectively.
